# Test results published in patent US20260158028A1, “USE OF QUINOLINONE DERIVATIVE IN TREATMENT OF IMMUNE THROMBOCYTOPENIA” (CHIA TAI TIANQING PHARMACEUTICAL GROUP CO., LTD., priority 2021, published 2026).
# System: adult subjects with persistent or chronic immune thrombocytopenia
# Test: Clinical trial for immune thrombocytopenia (platelet counts, safety)
# Assay type: in vivo, human
# Settings: for platelet count: 600 mg/d; for clinical efficacy in treating immune thrombocytopenia: adult persistent or chronic immune thrombocytopenia; for overall safety: tablets orally once daily on an empty stomach, 28-day cycles, 6 subjects; for percentage of subjects with at least one platelet count of ≥30×10^9/L and an increase of ≥2 times the baseline in platelet count / percentage of subjects with at least one platelet count of ≥50×10^9/L: within 12 weeks of treatment; for percentage of subjects with at least one platelet count of ≥30×10^9/L and an increase of ≥2 times the baseline in platelet count: in the absence of emergency treatment, evaluated patients
# Protocol: Test drug: tablets of the compound of formula I, 50 mg/tablet or 200 mg/tablet; Administration regimen: orally taken once daily on an empty stomach, with 28 consecutive days of administration as one treatment cycle.
# Neutrophil count (ANC)>1.5×10^9/L; hemoglobin (Hb)>90 g/L; • b. Total bilirubin (TBIL), alanine aminotransferase (ALT), and aspartate aminotransferase (AST)≤1.5 times the upper limit of normal (ULN); serum creatinine≤1.5×ULN, and creatinine clearance rate≥50 mL/min; • c. […] Prothrombin time (PT) is within the normal range±3 s, and activated partial thromboplastin time (APTT) is within the normal range±10 s; • e. The subject has no history of coagulation disorders other than immune thrombocytopenia. • 8) A female subject of childbearing age should agree to take contraceptive measures (such as intrauterine devices, contraceptives, or condoms) during the study and for 90 days after the study; serum pregnancy test results should be negative within 7 days before enrollment, and the subject must be a non-lactating one; a male subject should agree to take contraceptive measures during the study and for 6 months after the study.
# Efficacy was evaluated according to the platelet counts, WHO bleeding scores, and emergency treatment received of the subjects. The effective rate of platelet count increase was used as a main measure of efficacy, and for evaluation criteria, reference was made to American Society of Hematology 2019 Guidelines for Immune Thrombocytopenia and Chinese Guidelines for Diagnosing and Treating Adult Primary Immune Thrombocytopenia (2020 Edition).
# A total of 6 subjects were enrolled, with 3 in the 400 mg group (the dose for 2 of them was increased to 600 mg) and 3 in the 600 mg group.
# [1] = 400 mg and 600 mg groups, listed as tablets of the compound of formula I
# [2] = tablets orally once daily, 400 mg and 600 mg groups
structure (smiles),measurement,setting,value
Cn1c(=O)c(Nc2ccc(N3CCN(C4COC4)CC3)cn2)cc2c(F)c(-c3cc[nH]n3)ccc21 [compound of formula I],platelet count,"Subject 1, previous third-line therapy, baseline mean 22, D 3",5.2e+10 L⁻¹
same,platelet count,"Subject 1, previous third-line therapy, baseline mean 22, D 11",2.2e+11 L⁻¹
same,platelet count,"Subject 1, previous third-line therapy, baseline mean 22, D 18",7e+09 L⁻¹
same,platelet count,"Subject 1, previous third-line therapy, baseline mean 22, D 25",9e+09 L⁻¹
same,platelet count,"Subject 1, previous third-line therapy, baseline mean 22, W 5 D 1",8.9e+10 L⁻¹
same,platelet count,"Subject 1, previous third-line therapy, baseline mean 22, W 6 D 1",8.4e+10 L⁻¹
same,platelet count,"Subject 1, previous third-line therapy, baseline mean 22, W 7 D 1",3.5e+10 L⁻¹
same,platelet count,"Subject 1, previous third-line therapy, baseline mean 22, W 8 D 1",1.31e+11 L⁻¹
same,platelet count,"Subject 1, previous third-line therapy, baseline mean 22, W 9 D 1",2.24e+11 L⁻¹
same,platelet count,"Subject 1, previous third-line therapy, baseline mean 22, W 10 D 1",2.5e+10 L⁻¹
same,platelet count,"Subject 1, previous third-line therapy, baseline mean 22, W 12 D 1",1e+11 L⁻¹
same,platelet count,"Subject 2, previous second-line therapy, baseline mean 6.5, D 3",1e+10 L⁻¹
same,platelet count,"Subject 2, previous second-line therapy, baseline mean 6.5, D 11",3.1e+10 L⁻¹
same,platelet count,"Subject 2, previous second-line therapy, baseline mean 6.5, D 18",3.5e+10 L⁻¹
same,platelet count,"Subject 2, previous second-line therapy, baseline mean 6.5, D 25",2.1e+10 L⁻¹
same,platelet count,"Subject 3, previous first-line therapy, baseline mean 33.5, D 3",5.8e+10 L⁻¹
same,platelet count,"Subject 3, previous first-line therapy, baseline mean 33.5, D 11",8.3e+10 L⁻¹
same,platelet count,"Subject 3, previous first-line therapy, baseline mean 33.5, D 18",3.4e+10 L⁻¹
same,clinical efficacy in treating immune thrombocytopenia,,can effectively improve the platelet count
same,clinical efficacy in treating immune thrombocytopenia,listed as tablets of the compound of formula I,excellent clinical efficacy
same,overall safety,400 mg and 600 mg groups,good safety
same,overall safety,[1],controllable
same,dose-limiting toxicity (DLT) events,[2],no dose-limiting toxicity (DLT) events
same,treatment-related adverse events of grade 3 or higher,[2],no treatment-related adverse events of grade 3 or higher
same,percentage of subjects with at least one platelet count of ≥30×10^9/L and an increase of ≥2 times the baseline in platelet count,400 mg and 600 mg groups,relatively high
same,percentage of subjects with at least one platelet count of ≥30×10^9/L and an increase of ≥2 times the baseline in platelet count,[1],50%
same,percentage of subjects with at least one platelet count of ≥50×10^9/L,400 mg and 600 mg groups,relatively high
same,percentage of subjects with at least one platelet count of ≥50×10^9/L,[1],33.3%
